Assay results taken from PubChem BioAssay (NCI).
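Assay format: 96-well plates, 48-hour exposure. TGI marks complete inhibition of growth.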

Assays:
Test in all cases: DTP human tumour cell line panel, 48 h
[1] = system: U251 CNS
[2] = system: MOLT-4 leukemia
[3] = system: RXF 393 renal
[4] = system: UO-31 renal
[5] = system: HOP-62 NSCLC
[6] = system: HL-60(TB) leukemia
[7] = system: HOP-92 NSCLC
[8] = system: NCI-H226 lung
[9] = system: MDA-MB-435
[10] = system: BT-549 breast

| Compound | TGI [1] | TGI [2] | TGI [3] | TGI [4] | TGI [5] | TGI [6] | TGI [7] | TGI [8] | TGI [9] | TGI [10] |
| --- | --- | --- | --- | --- | --- | --- | --- | --- | --- | --- |
| CN(C)CCNC(=O)c1cccc2ccc(-c3ccc(Br)cc3)nc12 | 12.2 µM | 1.48 µM | 13.1 µM | 3.99 µM | 6.09 µM | 4.2 µM | 8.43 µM | 4.82 µM | – | – |
| N#Cc1c(N)oc(-c2ccc([N+](=O)[O-])cc2)c1C#N | > 100 µM | – | > 100 µM | 42.4 µM | 73.5 µM | > 100 µM | 62.9 µM | 46.5 µM | > 100 µM | – |
| CC(=O)C(=O)NC1/C=C(C)\C=C/C(O)C/C=C(C)\C=C/C(O)CC2OC(=O)C1(C)C(=O)C2C (stereo unspecified) | > 100 µM | > 100 µM | > 100 µM | > 100 µM | > 100 µM | – | > 100 µM | > 100 µM | – | – |
| CC(C)=CC1C(C(=O)Oc2ccccc2C(C)C)C1(C)C (stereo unspecified) | 33.6 µM | – | 33.5 µM | 34.6 µM | 85.5 µM | 38.5 µM | > 100 µM | – | > 100 µM | > 100 µM |
| COC(=O)CN(CC(=O)NCCCBr)C1CCCCC1N(CC(=O)OC)CC(=O)OC (stereo unspecified) | > 100 µM | > 100 µM | – | > 100 µM | > 100 µM | > 100 µM | > 100 µM | > 100 µM | > 100 µM | > 100 µM |
| Nc1nc(Cl)cc(OCC2(CO)CCCC2)n1 | > 100 µM | > 100 µM | > 100 µM | – | > 100 µM | > 100 µM | > 100 µM | > 100 µM | > 100 µM | – |
| Clc1cc(-c2ccccc2)nc(Nc2nc3ccccc3[nH]2)n1 | 30.7 µM | > 100 µM | 19.1 µM | > 100 µM | – | > 100 µM | 5.25 µM | > 100 µM | 83.4 µM | 52.9 µM |
| Cc1ncc([N+](=O)[O-])n1CC[N+](C)([O-])CCCCn1ccnc1[N+](=O)[O-] (stereo unspecified) | > 100 µM | > 100 µM | > 100 µM | > 100 µM | > 100 µM | > 100 µM | – | > 100 µM | > 100 µM | > 100 µM |
| CN(C)CN1CSC(=S)N(CN(C)C)C1 | > 100 µM | 92.4 µM | > 100 µM | > 100 µM | > 100 µM | – | > 100 µM | > 100 µM | > 100 µM | > 100 µM |
| CSc1cc(Cl)c(C)cc1S(=O)(=O)NC(=O)NNc1ccc(F)cc1 | > 100 µM | > 100 µM | > 100 µM | – | > 100 µM | – | – | > 100 µM | > 100 µM | – |
| CCOC(=O)c1nc2ccc(OC)cc2c2c1Cc1ccccc1-2 | > 100 µM | > 100 µM | 71.6 µM | > 100 µM | > 100 µM | – | – | > 100 µM | – | – |
| COc1cccc2c1NC(=O)Cc1c-2[nH]c2ccccc12 | > 100 µM | > 100 µM | > 100 µM | > 100 µM | > 100 µM | > 100 µM | > 100 µM | > 100 µM | > 100 µM | – |
